Reference: PMC4110944, “Probing SH2-domains using Inhibitor Affinity Purification (IAP)” (Proteome Science, 2014)
pIC50: −log10 of the molar value.

Tests used:
tubulin beta chain (TBB) = molecular target: T1, tubulin beta chain (TBB) (Homo sapiens, UniProt P07437); assay: Dose response competition pull-down in Colo205 lysate; assay type: binding; settings: increasing free compound 1
T1 construct: Dose response pull-down experiments were accomplished in Colo205 lysates; endogenous in cells; host or cells: Colo205 cell lysate
Protocol: (§1) A competitive binding experiment was performed to validate the results obtained under pervanadate-depletion conditions (Additional file 4). Dose response pull-down experiments were accomplished in Colo205 lysates with increasing concentrations of the free compound 1 that competes with the immobilized probe 1 for SH2 domain binding (Additional file 5). […] Additionally, these findings underscore the results of the pervanadate depletion experiments that indicate that the regulatory PI3 kinase subunits specifically interact with probe 1 via an SH2 domain. The regulatory PI3K subunits PI3KR1 and PI3KR2 contain a C-terminal and an N-terminal SH2 domain. The real IC50 values are likely smaller than the measured values for PI3KR1 and PI3KR2, since it is impossible to distinguish whether one of the two domains or both simultaneously interact with equal affinity with probe 1[35].
(§2) SH2 probe pulldowns were performed as described previously. […]

regulatory PI3K subunits = assay: Dose response competition pull-down with free compound 1 against immobilized probe 1 in Colo205 lysate; assay type: binding, human; settings: Colo205 lysates, competition with immobilized probe 1; read-out: IC50 values for the captured regulatory PI3K subunits
Protocol: as §1, §2

SH2 proteins = assay: Dose response competition pull-down in Colo205 lysate; assay type: binding, human; settings: increasing free compound 1
Protocol: as §1, §2

PIK3R2 = molecular target: T2, PIK3R2 (Homo sapiens, UniProt O00459); assay: Dose response competition pull-down with free compound 1 against immobilized probe 1 in Colo205 lysate; assay type: binding; settings: Colo205 cell lysate, free compound 1 competing with immobilized probe 1
T2 construct: Dose response pull-down experiments were accomplished in Colo205 lysates; endogenous in cells; host or cells: Colo205 cell lysate
Protocol: as §1
(§3) Figure 5 Dose-response curves. Pulldown experiments were conducted using probe 1 with Colo205 cell lysate and increasing concentrations of the free compound 1.
as §2
(§4) Raw MS data were processed by MaxQuant (v1.4.0.5) for peak detection and quantification […]

PIK3R1 = molecular target: T3, PIK3R1 (Homo sapiens, UniProt P27986); assay: as above; assay type: binding; settings: Colo205 cell lysate, free compound 1 competing with immobilized probe 1
T3 construct: Dose response pull-down experiments were accomplished in Colo205 lysates; endogenous in cells; host or cells: Colo205 cell lysate
Protocol: as §1, §3, §2, §4

CCCCCN(CCOCCOCCN)C(=O)[C@H](CCC(=O)O)NC(=O)[C@H](Cc1ccc(C(F)(F)P(=O)(O)O)cc1)NC(C)=O [probe 1]
dose dependence of tubulin beta chain (TBB) in the competition experiment (tubulin beta chain (TBB)): do not show dose dependent decrease | pIC50 (regulatory PI3K subunits): 4.64 to 5.00 | dose dependence of captured SH2 proteins in the competition experiment (SH2 proteins): dose dependent decrease | pIC50 (PIK3R2): 4.65 | pIC50 (PIK3R1): 4.99
